The values that follow come from US9260410B2, “P38 MAP kinase inhibitors” (Respivert Ltd., priority 2010, dated 2016).

Data set [1] deals with LPS-induced TNFα release in d-U937 cells. Briefly: LPS-induced TNFα release in d-U937 cells. It is filed as cell-based. The note with it: Homo sapiens, dU937, 4 h. Here is the method: U937 cells, a human monocytic cell line, were differentiated to macrophage-type cells by incubation with phorbol myristate acetate (PMA; 100 ng/ml) for 48 to 72 hr. […] The supernatant was collected for determination of TNFα and IL-8 concentrations by sandwich ELISA (Duo-set, R&D systems). […] The relative 50% effective concentration (REC50) was determined from the resultant concentration-response curve. The inhibition of IL-8 production was calculated at each concentration of test compound by comparison with vehicle control.

Data set [2] deals with Differentiated U937 cells. Briefly: MTT assay: cell viability. The data set is classed as cell-based, human. The note with it: 10 μg/ml. Here is the method:
The supernatant was replaced with 200 μL of new media and 10 μL of MTT stock solution (5 mg/mL) was added to each well. After incubation for 1 hr the media were removed, 200 μL of DMSO was added to each well and the plates were shaken lightly for 1 hr prior to reading the absorbance at 550 nm. The percentage loss of cell viability was calculated for each well relative to vehicle (0.5% DMSO) treatment. Consequently an apparent increase in cell viability for drug treatment relative to vehicle is tabulated as a negative percentage.

For data set [3], the system named is LPS-induced TNFα release in THP-1 cells. Briefly: LPS-induced TNFα release in THP-1 cells. The data set is classed as cell-based. Particulars: Homo sapiens. Here is the method:
THP-1 cells, a human monocytic cell line, were stimulated with 3 μg/mL of LPS (from E. Coli; 0111:B4, Sigma) for 4 hr and the supernatant collected for determination of the TNFα concentration by sandwich ELISA (Duo-set, R&D systems). The inhibition of TNFα production was calculated at each concentration by comparison with vehicle control. The 50% inhibitory concentration (IC50) was determined from the resultant concentration-response curve.

Like-named read-outs stand apart in the source and are kept apart here.

As for `Cc1ccc(-n2nc(C(C)(C)C)cc2NC(=O)Nc2ccc(OCCN3CCOCC3)c3ccccc23)cc1` [BIRB796, 1-(3-tert-Butyl-1-p-tolyl-1H-pyrazol-5-yl)-3-(4-(2-morpholinoethoxy)naphthalen-1-yl)urea], the EC50 in data set [1] (read-out: LPS/TNFα d-U937 REC50) worked out at 4.8 nM. For the same molecule, in data set [2] (d-U937, 4 hr in 5% FCS), the “MTT Assay 4 h (cell viability)” value is given as “− (− = <30% inhibition at 10 μg/ml)”. Besides, in data set [2] (d-U937, 24 h in 10% FCS), the “MTT Assay 24 h (cell viability)” value is “− (− = <30% inhibition at 10 μg/ml)”. In addition, the IC50 in data set [3] (THP-1 cells, 3 μg/mL LPS, 4 hr, read-out: LPS/TNFα THP-1 IC50) came out at 4.1 nM.

As to `CC(=O)Nc1cc(Oc2ccc(NC(=O)Nc3cc(C(C)(C)C)nn3-c3ccc(C)cc3)c3ccccc23)ccn1` [Example 3, N-(4-((4-(3-(3-(tert-Butyl)-1-(p-tolyl)-1H-pyrazol-5-yl)ureido)naphthalen-1-yl)oxy)pyridin-2-yl)acetamide], the EC50 in data set [1] (read-out: LPS/TNFα d-U937 REC50 (nM)) is 1 nM. Further, the IC50 in data set [3] (THP-1, 4 h, read-out: LPS/TNFα THP-1 IC50 (nM)) stood at 1.6 nM.
